From ChEMBL document CHEMBL6114982, “Structural optimization and characterization of highly potent and selective STAT3 inhibitors for the treatment of triple negative breast cancer” (Eur J Med Chem, 2025)
Calls of active or inactive are those of the source. The calls are words filed in the database; no cut-off is given here.

Key:
MDA-MB-231 [1] = assay: Downregulation of STAT3 phosphorylation level in human MDA-MB-231 cells preincubated for 48 hrs followed by IL-6 addition and measured after 2 hrs by Western blot analysis; assay type: functional, cell-based; settings: dose 0.05-0.5 µM, time 50.0 hrs
[2] = target: T1, Signal transducer and activator of transcription 3 (Homo sapiens, UniProt P40763); assay: Inhibition of STAT3 phosphorylation at Tyr705 residue in human BT-549 cells measured after 8 to 48 hrs by Western blot analysis; assay type: cell-based; settings: dose 0.1 µM, time 8-48 hrs
T1 sequence (P40763 whole entry): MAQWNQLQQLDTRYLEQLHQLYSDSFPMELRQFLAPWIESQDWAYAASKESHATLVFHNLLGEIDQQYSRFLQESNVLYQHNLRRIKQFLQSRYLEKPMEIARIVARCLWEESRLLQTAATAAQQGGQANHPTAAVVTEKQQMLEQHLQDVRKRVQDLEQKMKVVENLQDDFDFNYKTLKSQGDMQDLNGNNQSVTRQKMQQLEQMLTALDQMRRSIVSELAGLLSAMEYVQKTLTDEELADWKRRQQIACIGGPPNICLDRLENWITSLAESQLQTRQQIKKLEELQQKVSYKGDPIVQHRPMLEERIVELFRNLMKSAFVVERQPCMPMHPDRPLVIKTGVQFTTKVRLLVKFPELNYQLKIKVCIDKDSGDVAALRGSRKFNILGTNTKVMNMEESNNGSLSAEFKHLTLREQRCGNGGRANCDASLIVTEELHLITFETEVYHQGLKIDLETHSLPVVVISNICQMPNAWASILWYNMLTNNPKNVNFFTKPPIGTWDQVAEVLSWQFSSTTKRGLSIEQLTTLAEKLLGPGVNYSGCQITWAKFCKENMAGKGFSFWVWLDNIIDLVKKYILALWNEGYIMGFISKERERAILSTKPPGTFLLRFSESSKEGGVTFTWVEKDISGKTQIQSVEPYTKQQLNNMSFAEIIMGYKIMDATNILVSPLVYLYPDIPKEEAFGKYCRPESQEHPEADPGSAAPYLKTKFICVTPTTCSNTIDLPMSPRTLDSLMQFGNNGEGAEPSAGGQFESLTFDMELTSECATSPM

BT-549 [3] = assay: Effect on STAT3 expression in human BT-549 cells at 0.1 microM measured after 8 to 48 hrs by Western blot analysis; assay type: functional, cell-based; settings: time 8-48 hrs
BT-549 [4] = assay: Downregulation of Bcl-2 level in human BT-549 cells measured after 48 hrs by Western blot analysis; assay type: functional, cell-based; settings: dose 0.05-0.5 µM
BT-549 [5] = assay: Downregulation of CD44 expression in human BT-549 cells by Western blot analysis; assay type: functional, cell-based
[6] = target: Tyrosine-protein kinase JAK2 (Homo sapiens) (UniProt O60674); assay: Inhibition of JAK2 (unknown origin) at upto 10 uM
Chain of Tyrosine-protein kinase JAK2 (Homo sapiens) (O60674 whole entry): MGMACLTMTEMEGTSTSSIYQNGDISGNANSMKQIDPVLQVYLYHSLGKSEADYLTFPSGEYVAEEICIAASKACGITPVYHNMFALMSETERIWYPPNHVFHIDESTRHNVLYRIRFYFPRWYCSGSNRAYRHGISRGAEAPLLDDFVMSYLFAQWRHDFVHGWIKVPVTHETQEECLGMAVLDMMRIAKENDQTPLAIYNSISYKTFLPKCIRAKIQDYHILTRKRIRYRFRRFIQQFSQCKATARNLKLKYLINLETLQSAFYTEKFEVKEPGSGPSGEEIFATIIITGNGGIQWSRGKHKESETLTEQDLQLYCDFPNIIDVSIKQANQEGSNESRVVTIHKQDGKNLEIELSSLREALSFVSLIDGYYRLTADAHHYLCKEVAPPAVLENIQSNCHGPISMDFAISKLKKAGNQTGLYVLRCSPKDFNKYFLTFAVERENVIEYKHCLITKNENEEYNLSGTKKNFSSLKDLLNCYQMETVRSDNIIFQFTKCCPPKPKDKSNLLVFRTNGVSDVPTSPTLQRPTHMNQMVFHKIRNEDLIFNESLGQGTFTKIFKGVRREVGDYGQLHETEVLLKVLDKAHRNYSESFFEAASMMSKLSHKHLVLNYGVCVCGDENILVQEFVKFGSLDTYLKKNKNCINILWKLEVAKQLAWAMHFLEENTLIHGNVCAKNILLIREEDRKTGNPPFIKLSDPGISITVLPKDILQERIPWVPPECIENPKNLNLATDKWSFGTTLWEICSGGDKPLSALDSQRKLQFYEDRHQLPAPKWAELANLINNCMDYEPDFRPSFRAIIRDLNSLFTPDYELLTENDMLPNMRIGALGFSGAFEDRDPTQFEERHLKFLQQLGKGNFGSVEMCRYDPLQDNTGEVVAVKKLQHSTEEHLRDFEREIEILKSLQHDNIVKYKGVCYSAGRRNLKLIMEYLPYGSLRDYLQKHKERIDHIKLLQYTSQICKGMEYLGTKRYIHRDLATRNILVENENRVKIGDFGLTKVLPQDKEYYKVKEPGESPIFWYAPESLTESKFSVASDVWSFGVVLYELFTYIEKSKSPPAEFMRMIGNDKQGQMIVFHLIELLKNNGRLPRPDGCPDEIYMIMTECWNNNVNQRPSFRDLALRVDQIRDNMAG

Homo sapiens = species on record: Homo sapiens; assay: Inhibition of SRC phosphorylation (unknown origin) at […] residue at upto 10 uM
MDA-MB-231 [7] = assay: Effect on JAK1 phosphorylation level in human MDA-MB-231 cells at 0.05 to 0.5 uM measured after 48 hrs by Western blot analysis; assay type: functional, cell-based; settings: dose 0.05-0.5 µM
BT-549 [8] = assay: Effect on ERK1/2 phosphorylation level in human BT-549 cells at 0.05 to 0.5 uM measured after 48 hrs by Western blot analysis; assay type: functional, cell-based; settings: dose 0.05-0.5 µM
BT-549 [9] = assay: Effect on Akt phosphorylation level in human BT-549 cells at 0.05 to 0.5 uM measured after 48 hrs by Western blot analysis; assay type: functional, cell-based; settings: dose 0.05-0.5 µM
BT-549 [10] = assay: Effect on STAT1 phosphorylation level in human BT-549 cells at 0.05 to 0.5 uM measured after 48 hrs by Western blot analysis; assay type: functional, cell-based; settings: dose 0.05-0.5 µM
[11] = target: T1, Signal transducer and activator of transcription 3; assay: Inhibition of STAT3 nuclear translocation in human MDA-MB-231 cells assessed as decrease in p-STAT3 at Tyr705 residue at 0.05 to 0.5 uM preincubated for 48 hrs followed by IL-6 addition and measured after 2 hrs by Immunofluorescence analysis; assay type: cell-based; settings: dose 0.05-0.5 µM, time 50.0 hrs
[12] = target: T1, Signal transducer and activator of transcription 3; assay: Inhibition of STAT3 nuclear translocation in human BT-549 cells assessed as decrease in p-STAT3 at Tyr705 residue at 0.05 to 0.5 uM preincubated for 48 hrs followed by IL-6 addition and measured after 2 hrs by Immunofluorescence analysis; assay type: cell-based; settings: dose 0.05-0.5 µM, time 50.0 hrs
BT-549 [13] = assay: Downregulation of STAT3 phosphorylation level in human BT-549 cells preincubated for 48 hrs followed by IL-6 addition and measured after 2 hrs by Western blot analysis; assay type: functional, cell-based; settings: dose 0.05-0.5 µM, time 50.0 hrs
MDA-MB-231 [14] = assay: Inhibition of colony formation in human MDA-MB-231 cells measured after 14 days by crystal violet staining based analysis; assay type: functional, cell-based; settings: dose 0.1-0.5 µM, time 14.0 day
MDA-MB-231 [15] = assay: Inhibition colony formation in human MDA-MB-231 cells harbouring STAT3 siRNA at 0.1 uM after 14 days by crystal violet staining based analysis; assay type: functional, cell-based; settings: time 14.0 day
MDA-MB-231 [16] = assay: Downregulation of MMP2 expression level in human MDA-MB-231 cells by Western blot analysis; assay type: functional, cell-based
MDA-MB-231 [17] = assay: Downregulation of N-cadherin expression level in human MDA-MB-231 cells by Western blot analysis; assay type: functional, cell-based
MDA-MB-231 [18] = assay: Induction of apoptosis in human MDA-MB-231 cells assessed as late apoptotic at 0.5 uM incubated for 48 hrs by Annexin V and PI staining based flow cytometry analysis (reference value: 2.71%); assay type: functional
MDA-MB-231 [19] = assay: Antitumor activity against human MDA-MB-231 cells xenografted in female nude BALB/c mouse model assessed as tumor growth inhibition at 10 mg/kg, ip administered every other day for 30 days relative to control; assay type: functional; settings: MDA-MB-231, 720 h, time 30 day, read-out: TGI
MDA-MB-231 [20] = assay: Antitumor activity against human MDA-MB-231 cells xenografted in female nude BALB/c mouse model assessed as tumor growth inhibition at 20 mg/kg, ip administered every other day for 30 days relative to control; assay type: functional; settings: MDA-MB-231, 720 h, time 30 day, read-out: TGI
[21] = MRT in female BALB/c nude mouse administered as iv dose; assay type: ADME, organism-based; settings: in vivo
[22] = Toxicity in female BALB/c nude mouse assessed as effect on spleen at 10 to 20 mg/kg, iv measured after 30 days by H and E staining based analysis; assay type: organism-based; settings: in vivo, 720 h, dose 10-20 mg/kg, time 30 day
[23] = target: T1, Signal transducer and activator of transcription 3; assay: Competitive binding affinity to STAT3 SH2 domain (unknown origin) expressed in HEK293T cells assessed as decrease in fluorescence intensity by dual luciferase analysis; assay type: cell-based; settings: dose 0.05-0.5 µM
[24] = target: T1, Signal transducer and activator of transcription 3; assay: Inhibition of STAT3 in human MDA-MB-231 cells assessed as upregulation of MCL1 level; assay type: cell-based

## COc1cccc(C(=O)Nc2sc3c(c2C#N)CCN(C(=O)Nc2ccccc2OC)C3)c1
MDA-MB-231 [1]
  Activity: Dose-dependent-effect
[2]
  inhibition: Dose-dependent-effect
BT-549 [3]
  Activity: Active; Compound Showed Little Impact On Stat3 Expression
BT-549 [4]
  Activity: Dose-dependent-effect
BT-549 [5]
  Activity: Active
[6]
  inhibition: Active; Compound Showed Little Inhibitory Effect
Homo sapiens
  inhibition: Active; Compound Showed Little Inhibitory Effect
MDA-MB-231 [7]
  Activity: inactive
BT-549 [8]
  Activity: inactive
BT-549 [9]
  Activity: inactive
BT-549 [10]
  Activity: inactive
[11]
  inhibition: Active
[12]
  inhibition: Active
BT-549 [13]
  Activity: Dose-dependent-effect
MDA-MB-231 [14]
  inhibition: Dose-dependent-effect
MDA-MB-231 [15]
  inhibition: inactive
MDA-MB-231 [16]
  Activity: Active
MDA-MB-231 [17]
  Activity: Active
MDA-MB-231 [18]
  Activity: 19.18%
MDA-MB-231 [19]
  inhibition in vivo at 10 mg/kg: 51.5%
MDA-MB-231 [20]
  inhibition in vivo at 20 mg/kg: 58%
[21]
  MRT: 10 h
[22]
  Activity: Non-toxic
[23]
  Activity: Dose-dependent-effect
[24]
  inhibition: Active
